Assays:
[1] = Inhibition of rhesus macaque P2X7 receptor; design: species or system Macaca mulatta
P2X7 purinoceptor = biological target: T1, P2X7 purinoceptor (Canis lupus familiaris, UniProt Q64F92); assay: Inhibition of dog P2X7 receptor
T1 sequence (Q64F92 whole entry): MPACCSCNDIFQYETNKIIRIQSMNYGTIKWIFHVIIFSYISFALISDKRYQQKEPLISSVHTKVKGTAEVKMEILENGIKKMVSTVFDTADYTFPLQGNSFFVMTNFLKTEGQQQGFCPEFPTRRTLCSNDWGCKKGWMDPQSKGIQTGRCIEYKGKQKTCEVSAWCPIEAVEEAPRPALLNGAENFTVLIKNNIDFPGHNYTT

P2X purinoceptor = biological target: T2, P2X purinoceptor (Cavia porcellus, UniProt A9QW74); assay: Inhibition of guinea pig P2X7 receptor
T2 sequence (A9QW74 whole entry): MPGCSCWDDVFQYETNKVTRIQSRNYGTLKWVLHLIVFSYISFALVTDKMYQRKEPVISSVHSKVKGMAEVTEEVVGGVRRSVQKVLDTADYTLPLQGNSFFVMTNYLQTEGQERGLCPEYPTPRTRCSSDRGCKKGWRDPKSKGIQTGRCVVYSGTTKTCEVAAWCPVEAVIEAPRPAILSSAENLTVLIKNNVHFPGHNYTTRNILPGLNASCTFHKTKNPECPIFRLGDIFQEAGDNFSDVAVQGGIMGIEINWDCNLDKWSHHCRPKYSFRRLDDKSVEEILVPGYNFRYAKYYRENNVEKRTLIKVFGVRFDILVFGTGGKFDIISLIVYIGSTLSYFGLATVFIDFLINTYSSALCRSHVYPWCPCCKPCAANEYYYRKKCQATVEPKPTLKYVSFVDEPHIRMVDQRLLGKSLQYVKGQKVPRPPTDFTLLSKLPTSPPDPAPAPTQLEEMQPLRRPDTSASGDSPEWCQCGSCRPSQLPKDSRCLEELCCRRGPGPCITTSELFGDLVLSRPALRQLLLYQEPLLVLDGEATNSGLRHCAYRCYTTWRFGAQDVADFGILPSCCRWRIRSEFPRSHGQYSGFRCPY

P2X purinoceptor 7 [2] = biological target: T3, P2X purinoceptor 7 (Rattus norvegicus, UniProt Q64663); assay: Inhibition of rat P2X7 receptor
T3 sequence (Q64663 whole entry): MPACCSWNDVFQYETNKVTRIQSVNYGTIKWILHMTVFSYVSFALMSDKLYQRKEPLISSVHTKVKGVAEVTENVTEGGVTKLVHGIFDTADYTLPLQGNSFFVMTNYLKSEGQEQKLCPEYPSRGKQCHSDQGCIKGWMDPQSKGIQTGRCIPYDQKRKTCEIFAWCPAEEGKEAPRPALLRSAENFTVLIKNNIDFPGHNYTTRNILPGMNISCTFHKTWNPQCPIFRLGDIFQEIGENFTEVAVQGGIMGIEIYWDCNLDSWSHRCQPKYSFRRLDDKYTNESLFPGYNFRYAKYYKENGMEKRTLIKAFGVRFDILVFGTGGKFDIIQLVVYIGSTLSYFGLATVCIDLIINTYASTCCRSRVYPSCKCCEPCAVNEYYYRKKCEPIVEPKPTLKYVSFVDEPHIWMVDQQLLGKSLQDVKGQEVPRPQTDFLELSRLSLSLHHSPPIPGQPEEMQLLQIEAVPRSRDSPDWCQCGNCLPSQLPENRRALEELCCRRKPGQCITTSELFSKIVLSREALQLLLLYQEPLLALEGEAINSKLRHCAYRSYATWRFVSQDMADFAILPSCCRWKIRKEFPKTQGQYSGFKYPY

P2X purinoceptor 7 [3] = biological target: T4, P2X purinoceptor 7 (Homo sapiens, UniProt Q99572); assay: Inhibition of human P2X7 receptor
T4 sequence (Q99572 whole entry): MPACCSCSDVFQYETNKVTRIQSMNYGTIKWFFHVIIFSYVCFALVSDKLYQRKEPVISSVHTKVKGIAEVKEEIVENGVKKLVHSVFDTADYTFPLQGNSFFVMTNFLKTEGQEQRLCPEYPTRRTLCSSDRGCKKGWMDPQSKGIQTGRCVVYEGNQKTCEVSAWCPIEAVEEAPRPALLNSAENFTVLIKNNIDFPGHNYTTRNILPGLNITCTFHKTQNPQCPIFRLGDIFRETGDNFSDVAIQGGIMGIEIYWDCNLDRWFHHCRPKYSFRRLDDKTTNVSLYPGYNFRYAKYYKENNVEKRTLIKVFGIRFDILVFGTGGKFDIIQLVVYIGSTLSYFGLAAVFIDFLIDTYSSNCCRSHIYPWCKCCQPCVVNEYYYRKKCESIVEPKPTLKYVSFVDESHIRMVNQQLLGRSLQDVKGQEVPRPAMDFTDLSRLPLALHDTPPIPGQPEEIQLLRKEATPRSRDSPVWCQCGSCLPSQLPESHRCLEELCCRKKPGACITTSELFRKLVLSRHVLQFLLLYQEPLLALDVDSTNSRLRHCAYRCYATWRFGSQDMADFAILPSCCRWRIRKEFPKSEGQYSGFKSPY

Row | Compound | IC50 [1] | IC50 (P2X7 purinoceptor) | IC50 (P2X purinoceptor) | IC50 (P2X purinoceptor 7 [2]) | IC50 (P2X purinoceptor 7 [3])
1 | CN([C@@H](Cc1ccc(OS(=O)(=O)c2cccc3cnccc23)cc1)C(=O)N1CCN(c2ccccc2)CC1)S(=O)(=O)c1cccc2cnccc12 | 86 nM | 10 nM | 130 nM | > 100000 nM | 100 nM
2 | O=C1CSC(=O)N1C(CCc1ccncc1)COc1ccc(-c2cccc([N+](=O)[O-])c2)cc1 (stereo not given) | 23 nM |  |  | > 100000 nM | 31 nM
3 | C[S+]([O-])c1ccc(-c2nc(-c3ccncc3)c(-c3ccc(F)cc3)[nH]2)cc1 (stereo not given) [SB-203580] |  |  |  | > 30000 nM | 5000 nM

Source: ChEMBL document CHEMBL3600345, “Docking of competitive inhibitors to the P2X7 receptor family reveals key differences responsible for changes in response between rat and human” (Bioorg Med Chem Lett, 2015)
